pEC50: −log10 of the molar value.
These compounds were tested against T1, Bcl-2-like protein 2 (Homo sapiens, UniProt Q92843) (assay: inhibitors of Bim binding to Bcl-W, confirmation, biochemical, multiplexed, bead-based flow cytometry, HTS hits (AID 2081)). Details: not given.
T1 sequence (Q92843 whole entry): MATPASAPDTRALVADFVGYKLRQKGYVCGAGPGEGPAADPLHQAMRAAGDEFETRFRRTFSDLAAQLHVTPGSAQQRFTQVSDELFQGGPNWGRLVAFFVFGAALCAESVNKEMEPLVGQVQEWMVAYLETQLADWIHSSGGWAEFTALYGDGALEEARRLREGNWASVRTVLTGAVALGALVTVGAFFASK

Row | pEC50 | SMILES
1 | 5.58 | Cc1cc2nn(-c3cccc4ccccc34)nc2cc1N [SMR000076237]
2 | 6.21 | CC(=O)OCCCNc1cc(Sc2nc3ccccc3s2)c2nonc2c1[N+](=O)[O-] [MLS000521052]

More lines, now with the values behind:

Row | SMILES | pEC50
3 | Cc1nnc(Sc2cc(NCCO)c([N+](=O)[O-])c3nonc23)s1 [2-[[7-[(5-methyl-1,3,4-thiadiazol-2-yl)thio]-4-nitro-2,1,3-benzoxadiazol-5-yl]amino]ethanol] | 5.88
4 | COc1ccccc1NC1=C(NC(C)=O)C(=O)c2ccccc2C1=O [N-[3-(2-methoxyanilino)-1,4-dioxonaphthalen-2-yl]acetamide] | 5.47

Same assay, conditions: inactive by the depositor's call

Row | pEC50 | SMILES
5 | 4.69 | Oc1ccc(NCc2ccccc2OCc2ccccc2)cc1 [SMR000231540]
6 | 4.81 | Clc1nc(NCc2cccnc2)nc(N2CCOCC2)n1 [MLS000121154]

Second part, the compound before the results:

Row | SMILES | pEC50
7 | O=C(NCc1ccccc1)c1ccc2nc(-c3ccco3)c(-c3ccco3)nc2c1 [2,3-bis(furan-2-yl)-N-(phenylmethyl)quinoxaline-6-carboxamide] | 4.94
8 | O=C(/C=C/c1ccc(-c2ccccc2[N+](=O)[O-])o1)c1ccccc1 | 4.67
9 | CNC1CCC(Br)CC(C(=O)C=Cc2cccc(OC)c2OC)C1=O (configuration not stated) [4-bromo-2-[(E)-3-(2,3-dimethoxyphenyl)-1-oxoprop-2-enyl]-7-(methylamino)-1-cycloheptanone] | 4.33
10 | CCOc1ccccc1CNc1ccc(O)cc1 | 4.59
11 | COc1ccc(CCNC(=O)c2ccc3nc(-c4ccco4)c(-c4ccco4)nc3c2)cc1OC [N-[2-(3,4-dimethoxyphenyl)ethyl]-2,3-di-2-furylquinoxaline-6-carboxamide] | 4.68
12 | COc1cc(/N=C2\SSNC2Cl)c(OC)cc1Cl (configuration not stated) [4-chloro-N-(4-chloro-2,5-dimethoxyphenyl)-5-dithiazolidinimine] | 4.64

— BindingDB's records for doi:10.7270/Q2CZ35MZ (Nmmlsc, 2009)
